Data reported in EP0383941B1, “ULTRAVIOLET ABSORBING COSMETIC” (priority 1988, dated 1990).
≈ marks a conversion by molar mass, not a printed value. Values belong to the compound of their own block, whether it stands above or below them.

Key:
[1] = Measurement of water resistance (hot water treatment of aqueous suspension, extinction coefficient and TG-DTA); assay type: physicochemical; settings: for Water resisting stability: 10 % by weight aqueous suspension, 80°C for 2 hours, change of molecular extinction coefficient in λmax; for Change of TG-DTA: before and after hot water treatment (80°C, 2 hours)
Method: Fifty milliliters each of aqueous suspensions containing 10 % by weight of a cyclic imino ester and a comparative sample, respectively was prepared, and allowed to stand in a constant temperature bath of 80°C for 2 hours.
Then, 50 ml of isopropyl alcohol was added thereto, and the water and the solvent were removed using a rotary evaporator, and the residue was taken out.
This residue was measured for molecular extinction coefficient in λmax according to a similar manner to Example 1, and its change was used as a measure of water resistance. [formula] Further, the samples before and after hot water treatment were measured for TG-DTA, and its change was examined.

[2] = Measurement of ultraviolet ray-absorbing ability (spectrophotometer); assay type: physicochemical; settings: 1,1,2,2-tetrachloroethane, 5x10⁻⁴ g/100 ml, optical path length 1 cm; for E 1%, 1cm: at λmax
Method: There were measured ultraviolet ray-absorbing ability of the cyclic imino esters used in accordance with the invention and a commercially available known ultraviolet absorber (4-t-butyl-4'-methoxy-dibenzoylmethane).
The measurement was carried out using 1,1,2,2-tetrachloroethane as a solvent and Hitachi 330 type spectrophotometer under the conditions of an ultraviolet absorber concentration of 5x10⁻⁴ g/100 ml and an optical path length of 1 cm.

[3] = Measurement of solubility in water, alcohols and oily cosmetic bases; assay type: physicochemical; settings: 15°C
skin [4] = assay: Primary irritation to the skin; assay type: in vivo, white rabbits; settings: for Formation of erythema or eschar: animals judged +: grade + (Well defined erythema)
Method: This experiment was carried out according to the following method. • 1) Eight white rabbits (weighing 2.0 to 3.0 kg) whose fur on the back was cut are grouped into two groups each consisting of 4 animals. Animals of one group (blank) were fixed as they were in braces and those of the other group were fixed in braces after excoriation at the site to be tested. • 2) Vaseline base containing 25 % by weight of a test substance was applied onto a lint cloth, and the resulting lint cloth was stuck on the surface of skin. • 3) Whole body of the rabbit was wrapped with moisture-proof rubber for dental use to prevent movement of the stuck lint cloth and at the same time evaporation of volatile substance. • 4) Twenty-four hours thereafter the lint cloth was removed and the test site was observed. Second and third observations are made 48 and 72 hours thereafter, respectively. The average of evaluation after 24 and 72 hours was calculated as a final evaluation point. • 5) Evaluation was made by independently judging formation of erythema and eschar, and edema, specifically according to the following criteria.

Microorganisms = assay: Mutagenicity test using microorganisms; assay type: cell-based; settings: test on mutagenicity using microorganisms
Method: This experiment was carried out based on "About Test on Mutagenicity Using Microorganisms", a notification of the Director of the Standard Bureau, the Ministry of Labor, Japan dated May 18, 1985.

skin [5] = assay: Allergic contact dermatitis test (Guinea Pig Maximization Test); set-up: species or system white female guinea pigs; settings: in vivo
Method: Method: This experiment was carried out as follows based on "Guinea Pig Maximization Test" (Magnusson, B. & Klingman, A. M: Usefulness of guinea pig tests for detection of contact sensitizers, In Advances in Modern Toxicology. Vol 4, pp 551-560 Hemisphere Publishing Co., Washington & London, 1977) 1) The fur on the scapula of white female guinea pigs weighing 300 to 500 g was cut in an area of 4 x 6 cm. 2) Each sample was intradermally injected into a guinea pig at the positions (1), (2) and (3) shown in Figure 1 with • (1) 0.1 ml of Freund's complete adjuvant alone; • (2) 0.1 ml of test substance alone; or • (3) sample w/o emulsified with 0.1 ml of Freund's complete adjuvant 3) The fur at the sites was cut one week after the intradermal injection, and a […] test substance, 10 % sodium lauryl sulfate (vaseline base), was applied thereon. 4) Vaseline containing 25 % by weight of the test substance was spread on a filter paper of 2 x 4 cm and occlusive pasting was conducted for 48 hours. 5) The fur at the side of the body of a guinea pig shown at (4) in Figure 1 was cut in an area of 5 x 5 cm two weeks after the occlusive pasting. 6) The test substance was applied onto a filter paper of 2 x 2 cm, and occlusive pasting was conducted for 24 hours. 7) Measurement was carried out according to the following criterion: […]

skin [6] = assay: Contact photosensitization (Adjuvant-Strip method); assay type: in vivo, Hartley white guinea pigs; settings: for Contact photosensitization (result in words): Adjuvant-Strip method
Method: (1) Hartley white guinea pigs weighing 370 to 420 g were used. (2) The fur at the cervical part of guinea pigs was cut by an eletric hair clipper, and the part was further shaved with an electric razor. (3) A section of 2 x 4 cm was set at the cervical part, and 0.1 ml portions of Freund's complete adjuvant w/o emulsified with sterilized distilled water were intradermally injected at the four corners. (4) The skin of the section of 2 x 4 cm was subjected to stripping with cellophane tape to cause light erythema. […] (6) After the application, 6 lamps in total, namely 3 sunlamps (Toshiba FL-40SE30) and 3 black lights (Toshiba FL-40SBLB) were arranged in parallel, 70 minutes irradiation was carried out at a distance of 10 cm from the light sources. Total energy of the irradiation at this time was 12.0 J/cm². (7) The procedures (4), (5) and (6) were repeated 5 times every other day. […] (9) 24 Hours after the epilation, 4 sections each of 1.5 cm x 1.5 cm were set in two rows using the medium line as a symmetry axis. (10) This site was coated with the test substance and irradiated for 70 minutes at a distance of 10 cm from 6 black lights. […] (11) Judgement was made 24 and 48 hours after the irradiation according to the following criterion: [Judgement criterion]

[7] = Vaseline base containing 25 % by weight, 4 rabbits
[8] = grade +++ (Severe erythema to slight formation of eschar), Vaseline base containing 25 % by weight, 4 rabbits
[9] = 3 = Erythema in middle to heavy degree, guinea pigs

SMILES: O=c1oc(-c2ccc3cc(-c4nc5ccccc5c(=O)o4)ccc3c2)nc2ccccc12
Water resisting stability [1]: 96.7%

SMILES: O=c1oc(-c2ccc(-c3ccc(-c4nc5ccccc5c(=O)o4)cc3)cc2)nc2ccccc12
λmax (maximum absorption wavelength) [2]: 348 nm
λs (absorption intiation wavelength) [2]: 395 nm
E 1%, 1cm [2]: 1300
Water resisting stability [1]: 97.6%

Water resisting stability [1]: 52.0%
SMILES: COc1ccc(C(=O)CC(=O)c2ccccc2C(=O)O)cc1 [4-methoxy-2'-sodium carboxylate-dibenzoylmethane, reference compound]

λmax (maximum absorption wavelength) [2]: 360 nm
λs (absorption intiation wavelength) [2]: 400 nm
E 1%, 1cm [2]: 1040
solubility ([3]; Water): 0.0002 mg/mL (≈ 0.000644 mM)
solubility ([3]; organic solvent or mixture, Castor oil): 96 mg/mL (≈ 309 mM)
solubility ([3]; organic solvent or mixture, Ethanol): 16 mg/mL (≈ 51.5 mM)
solubility ([3]; organic solvent or mixture, Glycerin): 2.5 mg/mL (≈ 8.05 mM)
solubility ([3]; organic solvent or mixture, Isopropyl myristate): 53 mg/mL (≈ 171 mM)
solubility ([3]; organic solvent or mixture, Light liquid paraffin): 8.5 mg/mL (≈ 27.4 mM)
solubility ([3]; organic solvent or mixture, Olive oil): 19 mg/mL (≈ 61.2 mM)
Water resisting stability [1]: 89.4%
Change of TG-DTA [1]: genera-tion of subpeak
SMILES: COc1ccc(C(=O)CC(=O)c2ccc(C(C)(C)C)cc2)cc1 [4-t-butyl-4'-methoxydibenzoylmethane, 4-t-butyl-4'-methoxy-dibenzoylmethane]

SMILES: O=c1oc(-c2ccc(-c3nc4ccccc4c(=O)o3)cc2)nc2ccccc12 [A, 2,2'-p-phenylenebis(3,1-benzoxazin-4-one)]
λmax (maximum absorption wavelength) [2]: 350 nm
λs (absorption intiation wavelength) [2]: 385 nm
E 1%, 1cm [2]: 1270
Water resisting stability [1]: 96.9%
Change of TG-DTA [1]: no change
Formation of edema (animals) (skin [4]; rabbit, in vivo): 0/4
Formation of erythema or eschar: animals judged ++ (skin [4]; rabbit, in vivo): 0/4
Formation of erythema or eschar: animals judged +++ (skin [4]; rabbit, in vivo): 0/4
Formation of erythema or eschar: animals judged - (skin [4]; rabbit, in vivo): 4/4
Formation of erythema or eschar: animals judged ± (skin [4]; rabbit, in vivo): 0/4
Mutagenicity (Microorganisms): No mutagenicity was observed
Judgement 0 (animals) (skin [5]): 4/4
Judgement 1 (animals) (skin [5]): 0/4
Judgement 2 (animals) (skin [5]): 0/4
Contact photosensitization (result in words) (skin [6]; guinea pigs): not observed at all
Formation of erythema, judgement 0 (animals) (skin [6]; guinea pig, in vivo): 10/10
Formation of erythema, judgement 1 (animals) (skin [6]; guinea pig, in vivo): 0/10
Formation of erythema, judgement 2 (animals) (skin [6]; guinea pig, in vivo): 0/10
Formation of erythema, judgement 3 (animals) (skin [6]; guinea pig, in vivo): 0/10

SMILES: O=c1oc(-c2ccc(-c3ccc(-c4nc5ccccc5c(=O)o4)cc3)cc2)nc2ccccc12 [B, 2,2'-(4,4'-diphenylene)bis(3,1-benzoxazin-4-one)]
Formation of edema (animals) (skin [4]; [7]): 0/4
Formation of erythema or eschar: animals judged + (skin [4]; [7]): Same as left
Formation of erythema or eschar: animals judged +++ (skin [4]; [8]): Same as left
Mutagenicity (Microorganisms): No mutagenicity was observed
Formation of erythema, judgement 3 (animals) (skin [6]; [9]): Same as left
Contact photosensitization (result in words) (skin [6]; guinea pigs): not observed at all

SMILES: O=c1oc(-c2ccc3cc(-c4nc5ccccc5c(=O)o4)ccc3c2)nc2ccccc12 [C, 2,2'-(2,6-naphthylene)bis(3,1-benzoxazin-4-one)]
λmax (maximum absorption wavelength) [2]: 354 nm
λs (absorption intiation wavelength) [2]: 400 nm
E 1%, 1cm [2]: 1070
Formation of edema (animals) (skin [4]; [7]): 0/4
Formation of erythema or eschar: animals judged + (skin [4]; [7]): Same as left
Formation of erythema or eschar: animals judged +++ (skin [4]; [8]): Same as left
Mutagenicity (Microorganisms): No mutagenicity was observed
Formation of erythema, judgement 0 (animals) (skin [6]; 0 = No erythema, 24 and 48 hours after irradiation, 10.2 J/cm², guinea pigs): 9/10
Formation of erythema, judgement 1 (animals) (skin [6]; 1 = Erythema in very light degree, guinea pigs): 1/10
Formation of erythema, judgement 3 (animals) (skin [6]; [9]): Same as left
Contact photosensitization (result in words) (skin [6]; guinea pigs): Very slight contact photosensitization was observed
